Experimental data: ChEMBL document CHEMBL1201862, “PubChem BioAssay data set” (2004)
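1) Cells in 96-well plates. 2) Compound, 48 h, 5 concentrations. 3) Linear interpolation between surrounding doses. 4) Unreached endpoint = highest concentration. At the GI50, growth is halved.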 Calls of active or inactive are those of the source. No stated cut-off is given here; in the data, active = GI50 up to about 1.1 µM and inactive = higher.

Tests used:
Assay in all cases: NCI-60 cell line screen, 48 h
SF-539 = tested on: SF-539
UACC-62 = tested on: UACC-62
LOX IMVI = tested on: LOX IMVI
RPMI-8226 = tested on: RPMI-8226
NCI-H23 = tested on: NCI-H23
SK-MEL-5 = tested on: SK-MEL-5
SK-MEL-28 = tested on: SK-MEL-28
SNB-19 = tested on: SNB-19
SR = tested on: SR
COLO 205 = tested on: COLO 205
SF-295 = tested on: SF-295
MOLT-4 = tested on: MOLT-4
SW-620 = tested on: SW-620
SK-OV-3 = tested on: SK-OV-3
A549 = tested on: A549
786-0 = tested on: 786-0
HCT-116 = tested on: HCT-116
RXF 393 = tested on: RXF 393
HCT-15 = tested on: HCT-15

Structure (SMILES)	GI50 (SF-539)	GI50 (UACC-62)	GI50 (LOX IMVI)	GI50 (RPMI-8226)	GI50 (NCI-H23)	GI50 (SK-MEL-5)	GI50 (SK-MEL-28)	GI50 (SNB-19)	GI50 (SR)	GI50 (COLO 205)	GI50 (SF-295)	GI50 (MOLT-4)	GI50 (SW-620)	GI50 (SK-OV-3)	GI50 (A549)	GI50 (786-0)	GI50 (HCT-116)	GI50 (RXF 393)	GI50 (HCT-15)
Cc1c2cc[n+](COC(=O)c3ccccc3)cc2c(C)c2c1[nH]c1ccccc12	0.416 µM (active)	1.5 µM (inactive)	0.436 µM (active)	0.569 µM (active)	0.849 µM (active)	1.36 µM (inactive)	1.64 µM (inactive)	0.778 µM (active)	0.212 µM (active)	0.43 µM (active)	0.491 µM (active)	0.255 µM (active)	0.383 µM (active)	1.39 µM (inactive)	0.299 µM (active)	0.778 µM (active)	0.298 µM (active)		
CC(C)(C)C(=O)ON1N=NC2C3CC(OCc4ccccc4)(OCc4ccccc4)C(O3)C21 (stereo not given)	16.3 µM (inactive)	18.5 µM (inactive)	15.4 µM (inactive)	7.38 µM (inactive)	19.6 µM (inactive)	15.6 µM (inactive)	19.1 µM (inactive)			18.7 µM (inactive)	22.1 µM (inactive)	3.41 µM (inactive)	14.9 µM (inactive)	53.1 µM (inactive)	32.7 µM (inactive)	18.5 µM (inactive)		15.8 µM (inactive)	20.1 µM
CC(=O)CC(=O)/C=C/c1cccs1	31.6 µM (inactive)	44.6 µM (inactive)	55.2 µM (inactive)	34.6 µM (inactive)	> 100 µM (inactive)	37.1 µM (inactive)		> 100 µM (inactive)	48.1 µM (inactive)	> 100 µM (inactive)	> 100 µM (inactive)	> 100 µM (inactive)	70.1 µM (inactive)	> 100 µM (inactive)	> 100 µM (inactive)	99.5 µM (inactive)	40.7 µM (inactive)		47.8 µM
O=c1[nH]c(=O)n(C2OC3COC2C3O)cc1F (stereo not given)			> 100 µM (inactive)	> 100 µM (inactive)	> 100 µM (inactive)	> 100 µM (inactive)	> 100 µM (inactive)	> 100 µM (inactive)		> 100 µM (inactive)	> 100 µM (inactive)	> 100 µM (inactive)	> 100 µM (inactive)	48.1 µM (inactive)	> 100 µM (inactive)	> 100 µM (inactive)		> 100 µM (inactive)	> 100 µM
CCOc1cccc2c1N[S@@](=O)S2	> 100 µM (inactive)	49.2 µM (inactive)	> 100 µM (inactive)	98.2 µM (inactive)	> 100 µM (inactive)		> 100 µM (inactive)	59.2 µM (inactive)	74.8 µM (inactive)		80.4 µM (inactive)	55.3 µM (inactive)	> 100 µM (inactive)	> 100 µM (inactive)	> 100 µM (inactive)	> 100 µM (inactive)	> 100 µM (inactive)		> 100 µM
CN(C)CCNC(=O)c1cccc2nc3ccc4cccnc4c3nc12	0.19 µM (active)	0.457 µM (active)	0.24 µM (active)		0.294 µM (active)	0.343 µM (active)	0.944 µM (active)	0.362 µM (active)		0.232 µM (active)	0.644 µM (active)	0.0441 µM (active)	0.0675 µM (active)	0.469 µM (active)	0.284 µM (active)	0.454 µM (active)	0.0467 µM (active)	0.167 µM (active)	0.209 µM
CCO/C([O-])=C(/C=O)[n+]1c(C)n(C)c2ccccc21	> 100 µM (inactive)	> 100 µM (inactive)	> 100 µM (inactive)	> 100 µM (inactive)	> 100 µM (inactive)	> 100 µM (inactive)	> 100 µM (inactive)	> 100 µM (inactive)		> 100 µM (inactive)	> 100 µM (inactive)	> 100 µM (inactive)	> 100 µM (inactive)	> 100 µM (inactive)	> 100 µM (inactive)	> 100 µM (inactive)	> 100 µM (inactive)	> 100 µM (inactive)	> 100 µM
CSc1nc2c(ncn2C2OCC(O)C(O)C2O)c(=O)[nH]1 (stereo not given)	> 100 µM (inactive)	> 100 µM (inactive)	> 100 µM (inactive)	> 100 µM (inactive)	> 100 µM (inactive)	> 100 µM (inactive)	> 100 µM (inactive)	> 100 µM (inactive)		> 100 µM (inactive)	> 100 µM (inactive)	> 100 µM (inactive)	> 100 µM (inactive)	> 100 µM (inactive)	> 100 µM (inactive)		> 100 µM (inactive)	> 100 µM (inactive)	> 100 µM
C/C=C1/C(=O)O[C@]23C=C[C@@H]4C(C(=O)OC)=CO[C@H](O[C@@H]12)[C@@H]43 [PLUMERICIN]	2.34 µM (inactive)	0.815 µM (active)	0.336 µM (active)	0.423 µM (active)	0.916 µM (active)	2.12 µM (inactive)	1 µM (active)	3.56 µM (inactive)		1 µM (active)	2.46 µM (inactive)	0.459 µM (active)	0.432 µM (active)	3.93 µM (inactive)	3.47 µM (inactive)		0.451 µM (active)	0.55 µM (active)	0.671 µM
CN[C@@H](C)[C@H](N)c1ccccc1	> 100 µM (inactive)	> 100 µM (inactive)	> 100 µM (inactive)	> 100 µM (inactive)	> 100 µM (inactive)	> 100 µM (inactive)	> 100 µM (inactive)			> 100 µM (inactive)	> 100 µM (inactive)	> 100 µM (inactive)	> 100 µM (inactive)	> 100 µM (inactive)	> 100 µM (inactive)	> 100 µM (inactive)	> 100 µM (inactive)	> 100 µM (inactive)	> 100 µM
NC(=O)CN1C=CCC(C(N)=O)=C1 [CARICOTAMIDE]	> 100 µM (inactive)	> 100 µM (inactive)	> 100 µM (inactive)	> 100 µM (inactive)	> 100 µM (inactive)	> 100 µM (inactive)		> 100 µM (inactive)		> 100 µM (inactive)	> 100 µM (inactive)	> 100 µM (inactive)	> 100 µM (inactive)	> 100 µM (inactive)	> 100 µM (inactive)	> 100 µM (inactive)	> 100 µM (inactive)	> 100 µM (inactive)	> 100 µM
CC(=O)NC(CCCCN(Cc1ccccc1)C(=O)NCCCl)C(=O)NCc1ccccc1 (stereo not given)	> 100 µM (inactive)	> 100 µM (inactive)		> 100 µM (inactive)	> 100 µM (inactive)		> 100 µM (inactive)	> 100 µM (inactive)	> 100 µM (inactive)	> 100 µM (inactive)	> 100 µM (inactive)	> 100 µM (inactive)	> 100 µM (inactive)		> 100 µM (inactive)	> 100 µM (inactive)	> 100 µM (inactive)		> 100 µM
NC1CCCCC1.O=P(O)(O)C1(P(=O)(O)O)CC1	> 100 µM (inactive)	> 100 µM (inactive)	> 100 µM (inactive)	> 100 µM (inactive)	> 100 µM (inactive)	> 100 µM (inactive)	> 100 µM (inactive)	> 100 µM (inactive)		> 100 µM (inactive)	> 100 µM (inactive)	> 100 µM (inactive)	> 100 µM (inactive)	> 100 µM (inactive)	> 100 µM (inactive)	> 100 µM (inactive)	> 100 µM (inactive)	> 100 µM (inactive)	> 100 µM
CCOC(=O)C1=C(Nc2ccccc2)SCC1=O	> 100 µM (inactive)	> 100 µM (inactive)	> 100 µM (inactive)	> 100 µM (inactive)	> 100 µM (inactive)		> 100 µM (inactive)	> 100 µM (inactive)	> 100 µM (inactive)	> 100 µM (inactive)	> 100 µM (inactive)	> 100 µM (inactive)	> 100 µM (inactive)	> 100 µM (inactive)	> 100 µM (inactive)	> 100 µM (inactive)	> 100 µM (inactive)		> 100 µM
O=C(CC1(O)C(=O)Nc2ccccc21)c1ccc(O)cc1O (stereo not given)	> 100 µM (inactive)	> 100 µM (inactive)	> 100 µM (inactive)	> 100 µM (inactive)	> 100 µM (inactive)	> 100 µM (inactive)	> 100 µM (inactive)	> 100 µM (inactive)		> 100 µM (inactive)	> 100 µM (inactive)	> 100 µM (inactive)	> 100 µM (inactive)	> 100 µM (inactive)	> 100 µM (inactive)	> 100 µM (inactive)	> 100 µM (inactive)	> 100 µM (inactive)	> 100 µM
O=C(O)/C=C/c1nc2ccccc2c(=O)o1	> 100 µM (inactive)	> 100 µM (inactive)	> 100 µM (inactive)	> 100 µM (inactive)	> 100 µM (inactive)	> 100 µM (inactive)	> 100 µM (inactive)	> 100 µM (inactive)		> 100 µM (inactive)	> 100 µM (inactive)	> 100 µM (inactive)	> 100 µM (inactive)	> 100 µM (inactive)	> 100 µM (inactive)	> 100 µM (inactive)	> 100 µM (inactive)		> 100 µM
N#CC(C(=O)CCC(=O)Nc1cccc(C(F)(F)F)c1)c1ccccc1 (stereo not given)	> 100 µM (inactive)	> 100 µM (inactive)	> 100 µM (inactive)	> 100 µM (inactive)	> 100 µM (inactive)	> 100 µM (inactive)	> 100 µM (inactive)	> 100 µM (inactive)			> 100 µM (inactive)	> 100 µM (inactive)	> 100 µM (inactive)		> 100 µM (inactive)	> 100 µM (inactive)	> 100 µM (inactive)	> 100 µM (inactive)	> 100 µM
